Laboratory results from patent US20110190267A1, “PRODRUGS OF OPIOIDS AND USES THEREOF” (priority 2010, published 2011).
“And” between values parts separate entries of the source, which are not always exact repeats. Identical values can stand only once. Counter-ions that a name gives are not always drawn. Like-named read-outs stand apart in the source and are kept apart here. Marks after values point to notes of the source that are not given here.

Assays:
[1] = assay type: in vitro ADME
[2] = assay type: physicochemical
Method: Additionally the potential activation at blood pH of 7.4 was investigated over a similar period. The concentrations of the prodrug & drug were assayed by HPLC.

in vivo [3] = details: dog, read-out: Dog Oral Bioavailability (%)
Method: (§1) Blood samples were taken at various times after administration and submitted to analysis for the parent drug and prodrug using a validated LC-MS-MS assay. Pharmacokinetic parameters derived from the plasma analytical data were determined using Win Nonlin.

in vivo [4] = details: monkey, read-out: Monkey Oral Bioavailability (%)
Method: as §1

[5] = Pharmacokinetics of R,R tapentadol or R,R tapentadol PABA carbamate, monkeys (Example 40); assay type: in vivo, cynomolgus monkeys; details: R,R tapentadol in plasma after oral R,R tapentadol, 3 mg free base equivalents/kg
Method: (§2) Blood samples were taken at various times after administration, and submitted to analysis for the parent drug and prodrug using a validated LC-MS-MS assay. Pharmacokinetic parameters derived from the plasma analytical data were determined using Win Nonlin.

[6] = Pharmacokinetics of R,R tapentadol or R,R tapentadol PABA carbamate, dogs (Example 41); assay type: in vivo, Beagle dogs; details: for AUC / Cmax / T>50%Cmax / Tmax / t½: RR-tapentadol in plasma after oral RR-tapentadol, 1 mg free base equivalents/kg, female beagle dogs
Method: as §2

[7] = Pharmacokinetics of butorphanol or butorphanol PABA carbamate, monkeys (Example 43); assay type: in vivo, cynomolgus monkeys
Method: as §2

[8] = Pharmacokinetics of butorphanol or butorphanol PABA carbamate, dogs (Example 44); assay type: in vivo, beagle dogs; details: butorphanol in plasma after oral butorphanol, 0.5 mg butorphanol free base/kg, dog; for half-life: read-out: t½ (converted)
Method: Test substances, butorphanol or butorphanol_PABA carbamate were orally administered to two male beagle dogs at 0.5 mg butorphanol free base equivalents/kg in a parallel group study design.

[9] = Balikova et al. (2001); cited from earlier work
in vivo [10] = details: male, rat, plasma, po, 10 mg naloxone free base equivalents/kg, naloxone in plasma after oral naloxone, 10 mg free base equivalents/kg, male rats; for half-life: t½
Method: Blood samples were taken at various times after administration and submitted to analysis for the parent drug and pro-drug using a validated LC-MS-MS assay. Pharmacokinetic parameters derived from the plasma analytical data were determined using Win Nonlin.

[11] = Pharmacokinetics of racemic tapentadol or tapentadol PABA carbamate, monkeys (Example 39)
[12] = simulated intestinal fluid pH 6.8, 37 C
[13] = naloxone in plasma after oral naloxone, 10 mg free base equivalents/kg, male rats, single animal

## CCC1(c2cccc(OC(=O)NC(C(=O)O)C(C)C)c2)CCCCN(C)C1 [Meptazinol (R)-valine carbamate]
[1]; [12]
  Biological/chemical stability - SIF - pH 6.8, 37 C. % prodrug remaining at 2 h: 74%
[2]; pH 7.4, 37° C, 2 h
  Chemical Stability - pH 7.4, 37° C. % prodrug remaining at 2 h: 96%

## CCC1(c2cccc(OC(=O)NC(C(=O)O)C(C)C)c2)CCCCN(C)C1 [Meptazinol (S) valine carbamate]
[1]; [12]
  Biological/chemical stability - SIF - pH 6.8, 37 C. % prodrug remaining at 2 h: 99%
[2]; pH 10.0, 37° C, 2 h
  Chemical Stability, % prodrug remaining at 2 h, pH 10.0: 66% pH 10.0

## CCC1(c2cccc(O)c2)CCCCN(C)C1 (stereo not shown) [Meptazinol HCl (oral), Meptazinol HCl]
In vivo [3]
  bioavailability: 6 ± 2.1%
In vivo [4]
  bioavailability: 1.8 ± 0.2%

## CCC(C)C(NC(=O)Oc1cccc(C2(CC)CCCCN(C)C2)c1)C(=O)O (stereo not shown) [Meptazinol isoleucine carbamate]
[1]; [12]
  Biological/chemical stability - SIF - pH 6.8, 37 C. % prodrug remaining at 2 h: 99%
[2]; pH 10.0, 37° C, 2 h
  Chemical Stability, % prodrug remaining at 2 h, pH 10.0: 73% pH 10.0

## CCC1(c2cccc(OC(=O)NC(CCSC)C(=O)O)c2)CCCCN(C)C1 (stereo not shown) [Meptazinol methionine carbamate]
[1]; simulated gi fluid, pH 6.8
  Biological/chemical stability - SIF - pH 6.8, 37 C. % prodrug remaining at 2 h: 100%
[2]; buffer, 2 h, pH 10
  Chemical Stability, % prodrug remaining at 2 h, pH 10.0: 60% pH 10.0

## CCC1(c2cccc(OC(=O)N[C@H](C(=O)O)C(C)C)c2)CCCCN(C)C1 (stereo partly shown) [Meptazinol-valine carbamate]
[2]; pH 7.4
  Chemical stability at pH 7.4: ~100%

## CC[C@@H](c1cccc(O)c1)[C@@H](C)CN(C)C [R,R tapentadol]
[5]; Mean
  AUC: 7.6 ng·h/mL
  Cmax: 2.2 ng/mL
  T>50%Cmax: 2.8 h
  Tmax: 1.1 h
  t½: 1.6 h
[5]; single animal
  AUC: 10 ng·h/mL and 8.6 ng·h/mL and 7.7 ng·h/mL and 4.0 ng·h/mL
  Cmax: 2.9 ng/mL and 2.6 ng/mL and 2.1 ng/mL and 1.1 ng/mL
  T>50%Cmax: 2.8 h (2×) and 2.7 h and 2.9 h
  Tmax: 0.5 h and 1.0 h (2×) and 2.0 h
  t½: 1.5 h (2×) and 1.7 h and 1.6 h
[6]; Mean
  AUC: 4.16 ng·h/mL
  Cmax: 3.21 ng/mL
  T>50%Cmax: 0.7 h
  Tmax: 0.44 h
  t½: 0.6 h
[6]; single animal
  AUC: 1.74 ng·h/mL and 8.35 ng·h/mL and 2.38 ng·h/mL
  Cmax: 1.25 ng/mL and 8.48 ng/mL and 0.39 ng/mL and 2.71 ng/mL
  T>50%Cmax: 1.0 h and 0.6 h (2×)
  Tmax: 0.50 h (3×) and 0.25 h
  t½: 0.7 h and 0.6 h and 0.5 h
[6]; dogs, oral 1 mg R,R tapentadol free base equivalents/kg
  T50% Cmax of R,R tapentadol: 0.7 h

## Oc1ccc2c(c1)[C@@]13CCCC[C@@]1(O)[C@@H](C2)N(CC1CCC1)CC3 [butorphanol]
[7]; butorphanol in plasma after oral butorphanol, 1.0 mg butorphanol free base/kg, monkey, single animal, below the LLOQ of 0.1 ng/mL
  Cmax: <0.1* ng/mL
[7]; male, cynomolgus monkey, 1 mg butorphanol free base equivalents/kg, butorphanol in plasma after oral butorphanol, 1.0 mg butorphanol free base/kg, Average, estimate of maximal systemic exposure
  AUC: 0.62 ng·h/mL
[7]; male, cynomolgus monkey, 1 mg butorphanol free base equivalents/kg, butorphanol in plasma after oral butorphanol, 1.0 mg butorphanol free base/kg, Average, plasma concentrations below the LLOQ of 0.1 ng/mL
  Tmax: 0.5 h
[7]; male, cynomolgus monkey, plasma, 1 mg butorphanol free base equivalents/kg, butorphanol, oral butorphanol 1.0 mg free base/kg, Average, value after giving prodrug and used for estimating maximal systemic exposure, read-out: t½ (converted)
  half-life: 6.1 h
[7]; male, cynomolgus monkey, plasma, po, 1 mg butorphanol free base equivalents/kg, butorphanol in plasma after oral butorphanol, 1.0 mg butorphanol free base/kg, Average, plasma concentrations below the LLOQ of 0.1 ng/mL, read-out: Cmax
  Cmax: 0.1 ng/mL
[7]; male, cynomolgus monkey, plasma, po, 1 mg butorphanol free base equivalents/kg, butorphanol in plasma after oral butorphanol, 1.0 mg butorphanol free base/kg, single animal, below the LLOQ of 0.1 ng/mL, read-out: Cmax
  Cmax: < 0.1 ng/mL
[8]; Average
  T>50%Cmax: 2.0 h
[8]; single animal
  AUC: 1.80 ng·h/mL
  Cmax: 0.56 ng/mL
  T>50%Cmax: 1.6 h and 2.4 h
  Tmax: 1.00 h
  t½: 1.7 h
[8]; male, beagle, plasma, po, 0.5 mg/kg, Average, read-out: AUC
  AUC: 2.05 ng·h/mL
[8]; male, beagle, plasma, po, 0.5 mg/kg, Average, read-out: Cmax
  Cmax: 0.73 ng/mL
[8]; male, beagle, plasma, po, 0.5 mg/kg, Average, read-out: Tmax
  Tmax: 0.75 h
[8]; male, beagle, plasma, po, 0.5 mg/kg, Average
  half-life: 1.6 h
[8]; male, beagle, plasma, po, 0.5 mg/kg, single animal, read-out: AUC
  AUC: 2.3 ng·h/mL
[8]; male, beagle, plasma, po, 0.5 mg/kg, single animal, read-out: Cmax
  Cmax: 0.9 ng/mL
[8]; male, beagle, plasma, po, 0.5 mg/kg, single animal, read-out: Tmax
  Tmax: 0.5 h
[8]; male, beagle, plasma, po, 0.5 mg/kg, single animal
  half-life: 1.6 h

## COc1ccc2c3c1O[C@H]1[C@@H](O)CC[C@H]4[C@@H](C2)N(C)CC[C@@]341 [dihydrocodeine]
[9]
  oral dose converted to dihydromorphine: less than 2%

## C=CCN1CC[C@]23c4c5ccc(O)c4O[C@H]2C(=O)CC[C@@]3(O)[C@H]1C5 [naloxone]
Naloxone in plasma after oral naloxone, 10 mg free base equivalents/kg, male rats, Mean
  T>50%Cmax: 2.1 h
[13]
  Cmax: 6.3 ng/mL and 7.6 ng/mL and 8.1 ng/mL and 4.9 ng/mL
  T>50%Cmax: 1.2 h and 1.5 h and 1.8 h and 1.3 h and 4.5 h
  Tmax: 0.50 h
  t½: 3.8 h
rats, oral 10 mg/kg
  variability around bioavailability of naloxone: over 10%
In vivo [10]; Mean
  AUC: 22 ng·h/mL
  Cmax: 6.8 ng/mL
  Tmax: 0.35 h
  half-life: 3.9 h
In vivo [10]; single animal
  AUC: 22 ng·h/mL
  Cmax: 7.1 ng/mL
  Tmax: 0.25 h
  half-life: 3.9 h

## CC[C@@H](c1cccc(O)c1)[C@@H](C)CN(C)C [tapentadol]
[11]; cynomolgus monkey, plasma, po, 3 mg/kg
  half-life: 1.2 h
[11]; male, cynomolgus monkey, plasma, po, 1 mg free base equivalents/kg
  AUC: 5.4 ng·h/mL
[11]; male, cynomolgus monkey, plasma, po, 1 mg free base equivalents/kg, Cmax * (estimated), racemic tapentadol (all four isomers), oral tapentadol scaled up from 1 to 3 mg free base equivalents/kg, monkeys, n = 5, LLOQ taken as Cmax
  Cmax: 2.4 ng/mL
[11]; male, cynomolgus monkey, plasma, po, 1 mg/kg tapentadol free base equivalents/kg
  AUC: < 5.4 ng·h/mL
[11]; oral tapentadol 1 mg/kg, monkeys
  plasma concentrations of tapentadol, each isomer (LLOQ): < 0.4 ng/mL
[11]; racemic tapentadol (all four isomers), oral tapentadol scaled up from 1 to 3 mg free base equivalents/kg, monkeys, n = 5, LLOQ taken as Cmax
  Cmax * (estimated): <2.4 ng/mL
